# Measured values published in patent US20240336606A1 (Suzhou Zelgen Biopharmaceuticals Co., Ltd., priority 2020, published 2024).
# Biological target: T1, binding of KRAS^G12C to SOS1 (Homo sapiens, UniProt Q07889)
# T1 construct: Tag1 (unspecified)
# T1 sequence (Q07889 1-1333): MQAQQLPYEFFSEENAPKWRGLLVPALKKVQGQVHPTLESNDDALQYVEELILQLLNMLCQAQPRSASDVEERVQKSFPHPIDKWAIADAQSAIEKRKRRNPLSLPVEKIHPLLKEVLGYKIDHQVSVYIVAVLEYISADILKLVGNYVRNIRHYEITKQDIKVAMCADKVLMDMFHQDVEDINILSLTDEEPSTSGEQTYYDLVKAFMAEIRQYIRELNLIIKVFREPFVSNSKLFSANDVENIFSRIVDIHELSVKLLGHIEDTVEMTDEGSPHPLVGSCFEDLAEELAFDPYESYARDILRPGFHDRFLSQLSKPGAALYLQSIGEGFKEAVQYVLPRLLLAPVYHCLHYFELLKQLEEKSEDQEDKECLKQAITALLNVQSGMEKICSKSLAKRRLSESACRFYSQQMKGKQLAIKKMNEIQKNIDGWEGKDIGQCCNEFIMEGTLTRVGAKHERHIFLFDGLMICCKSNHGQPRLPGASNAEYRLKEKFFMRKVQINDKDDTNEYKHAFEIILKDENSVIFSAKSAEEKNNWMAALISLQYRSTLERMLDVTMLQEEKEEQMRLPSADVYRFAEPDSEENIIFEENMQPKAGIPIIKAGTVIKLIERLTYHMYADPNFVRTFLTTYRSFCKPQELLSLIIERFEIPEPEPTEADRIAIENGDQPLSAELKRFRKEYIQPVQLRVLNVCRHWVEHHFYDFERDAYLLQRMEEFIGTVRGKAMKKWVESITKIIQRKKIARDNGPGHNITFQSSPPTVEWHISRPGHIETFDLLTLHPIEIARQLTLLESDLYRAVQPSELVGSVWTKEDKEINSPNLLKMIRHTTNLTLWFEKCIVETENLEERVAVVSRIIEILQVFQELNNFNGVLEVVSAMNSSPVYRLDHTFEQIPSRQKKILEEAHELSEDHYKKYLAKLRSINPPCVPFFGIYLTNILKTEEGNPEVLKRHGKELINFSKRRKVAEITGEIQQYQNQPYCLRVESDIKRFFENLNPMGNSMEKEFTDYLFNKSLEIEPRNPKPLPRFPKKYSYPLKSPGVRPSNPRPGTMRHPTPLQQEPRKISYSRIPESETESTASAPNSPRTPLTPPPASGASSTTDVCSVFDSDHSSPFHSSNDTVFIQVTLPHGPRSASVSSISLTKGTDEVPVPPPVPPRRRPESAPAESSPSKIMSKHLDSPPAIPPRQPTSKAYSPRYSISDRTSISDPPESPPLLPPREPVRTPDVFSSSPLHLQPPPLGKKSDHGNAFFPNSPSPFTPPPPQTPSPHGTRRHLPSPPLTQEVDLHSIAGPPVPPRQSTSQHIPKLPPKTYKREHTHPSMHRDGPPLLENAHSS
# Experiment: Inhibition of the binding of KRAS^G12C to SOS1
# Details: Tag1-SOS1 / Tag2-KRAS^G12C, 2 h incubation at room temperature; read-out: IC50 (nM), inhibitory activity on the binding of KRAS^G12C to SOS1
# Experimental: • (1) Gradient dilution of the test compounds: 10 mM mother solution (dissolved in 100% DMSO) was added to a 384-well test plate, the final content of DMSO being 0.25%.
# (2) 5 μL of Tag1-SOS1 solution was added to the test plate, and 5 μL of dilution buffer was added to the control group.
# (3) 5 μL of Tag2-KRAS^G12C solution was added to the test plate.
# (4) 10 μL of Anti-Tag1-Tb3+ and Anti-Tag2-XL665 detection solution were added to the test plate. The plate was centrifuged at 1000 rpm for 1 min and incubated at room temperature for 2 h.
# (6) The IC50 values for the compounds were finally calculated using GraphPad Prism software, and a curve was fit and plotted.
# The inhibitory activity of the compounds of the examples of the present invention on the binding of KRAS^G12C enzyme to SOS1 is shown in Table 1.
row,IC50 [nM],SMILES
1,121,"COc1cc2nc(C)nc(N[C@H](C)c3cccc(C(F)(F)F)c3F)c2cc1OC[C@@H]1CCCN1S(C)(=O)=O [Example 20, N—((R)-1-(2-fluoro-3-(trifluoromethyl)phenyl)ethyl)-7-methoxy-2-methyl-6-(((S)-1-(methylsulfonyl)pyrrolidin-2-yl)methoxy)quinazolin-4-amine]"
2,4.7,"COc1cc2nc(C)nc(N[C@H](C)c3cc(N)cc(C(F)(F)F)c3)c2cc1OCCN(C)CC1(F)CC1 [Example 21, (R)—N-(1-(3-amino-5-(trifluoromethyl)phenyl)ethyl)-6-(2-(((1-fluorocyclopropyl)methyl)(methyl)amino)ethoxy)-7-methoxy-2-methylquinazolin-4-amine]"
3,7,"COc1cc2nc(C)nc(N[C@H](C)c3cc(N)cc(C(F)(F)F)c3)c2cc1OCCN(C)CC1CC(F)(F)C1 [Example 22, (R)—N-(1-(3-amino-5-(trifluoromethyl)phenyl)ethyl)-6-(2-(((3,3-difluorocyclobutyl)methyl)(methyl)amino)ethoxy)-7-methoxy-2-methylquinazolin-4-amine]"
4,7.9,COc1cc2nc(C)nc(N[C@H](C)c3cccc(C(F)(F)C(C)(C)O)c3F)c2cc1OC[C@H]1CNCCO1 [Example 23]
5,7.7,COc1cc2nc(C)nc(N[C@H](C)c3cccc(C(F)(F)C(C)(C)O)c3F)c2cc1OC[C@@H]1CNCCO1 [Example 24]
6,3.9,COc1cc2nc(C)nc(N[C@H](C)c3cccc(C(F)(F)C(C)(C)O)c3F)c2cc1OC[C@@H]1CN(C)CCO1 [Example 25]
7,9.2,"COc1cc2nc(C)nc(N[C@H](C)c3cccc(C(F)(F)C(C)(C)O)c3F)c2cc1OC[C@@H]1COCCO1 [Example 26, 1-(3-((R)-1-((6-(((S)-1,4-Dioxan-2-yl)methoxy)-7-methoxy-2-methylquinazolin-4-yl)amino)ethyl)-2-fluorophenyl)-1,1-difluoro-2-methylpropan-2-ol]"
8,8.5,"COc1cc2nc(C)nc(N[C@H](C)c3cccc(C(F)(F)C(C)(C)O)c3F)c2cc1OC[C@H]1COCCO1 [Example 27, 1-(3-((R)-1-((6-(((R)-1,4-Dioxan-2-yl)methoxy)-7-methoxy-2-methylquinazolin-4-yl)amino)ethyl)-2-fluorophenyl)-1,1-difluoro-2-methylpropan-2-ol]"
9,7.9,"COc1cc2nc(C)nc(N[C@H](C)c3cc(N)cc(C(F)(F)F)c3)c2cc1OC[C@@H]1COCCO1 [Example 28, 6-(((S)-1,4-Dioxan-2-yl)methoxy)-N—((R)-1-(3-amino-5-(trifluoromethyl)phenyl)ethyl)-7-m ethoxy-2-methylquinazolin-4-amine]"
10,4.7,COc1cc2nc(C)nc(N[C@H](C)c3cccc(C(F)(F)C(C)(C)O)c3F)c2cc1OC[C@@H]1CN(S(C)(=O)=O)CCO1 [Example 29]
11,31,"COc1cc2nc(C)nc(N[C@H](C)c3cc(N)cc(C(F)(F)F)c3)c2cc1OC[C@@H]1CCCN1S(C)(=O)=O [Example 32, N—((R)-1-(3-amino-5-(trifluoromethyl)phenyl)ethyl)-7-methoxy-2-methyl-6-(((S)-1-(methylsulfonyl)pyrrolidin-2-yl)methoxy)quinazolin-4-amine]"
12,7.5,"COc1cc2nc(C)nc(N[C@H](C)c3cccc(C(F)(F)C(C)(C)O)c3F)c2cc1OCCN(C)S(C)(=O)=O [Example 33, (R)—N-(2-((4-((1-(3-(1,1-Difluoro-2-hydroxy-2-methylpropyl)-2-fluorophenyl)ethyl)amino)-7-methoxy-2-methylquinazolin-6-yl)oxy)ethyl)-N-methylmethanesulfonamide]"
13,5.4,"COc1cc2nc(C)nc(N[C@H](C)c3cc(N)cc(C(F)(F)F)c3)c2cc1OCC1(N(C)C)CC1 [Example 34, (R)—N-(1-(3-Amino-5-(trifluoromethyl)phenyl)ethyl)-6-((1-(dimethylamino)cyclopropyl)methoxy)-7-methoxy-2-methylquinazolin-4-amine]"
14,17,"COc1cc2nc(C)nc(N[C@H](C)c3cc(N)cc(C(F)(F)F)c3F)c2cc1OCCOC1CC1 [Example 35, (R)—N-(1-(5-Amino-2-fluoro-3-(trifluoromethyl)phenyl)ethyl)-6-(2-cyclopropoxyethyloxy)-7-methoxy-2-methylquinazolin-4-amine]"
15,> 1000,"COc1cc2nc(C)nc(N[C@H](C)c3cc(C(F)(F)F)ccn3)c2cc1OCCOC1CC1 [Example 36, (R)-6-(2-Cyclopropoxyethyloxy)-7-methoxy-2-methyl-N-(1-(4-(trifluoromethyl)pyridin-2-yl)ethyl)quinazolin-4-amine]"
16,33,"COc1cc2nc(C)nc(N[C@H](C)c3cc(C(F)(F)F)cc(N)n3)c2cc1OCCOC1CC1 [Example 38, (R)—N-(1-(6-Amino-4-(trifluoromethyl)pyridin-2-yl)ethyl)-6-(2-cyclopropoxyethyloxy)-7-m ethoxy-2-methylquinazolin-4-amine]"
17,21,"COc1cc2nc(C)nc(N[C@H](C)c3cc(N)cc(C(F)(F)F)c3)c2cc1OC[C@@H]1CCCO1 [Example 39, N—((R)-1-(3-Amino-5-(trifluoromethyl)phenyl)ethyl)-7-methoxy-2-methyl-6-(((S)-tetrahydrofuran-2-yl)methoxy)quinazolin-4-amine]"
18,8.2,"COc1cc2nc(C)nc(N[C@H](C)c3cc(N)cc(C(F)(F)F)c3)c2cc1OC[C@H]1CCCO1 [Example 40, N—((R)-1-(3-Amino-5-(trifluoromethyl)phenyl)ethyl)-7-methoxy-2-methyl-6-(((R)-tetrahydrofuran-2-yl)methoxy)quinazolin-4-amine]"
19,252,"COc1cc2nc(C)nc(N[C@H](C)c3cc(N)nc(C(F)(F)F)c3)c2cc1OCCOC1CC1 [Example 41, (R)—N-(1-(2-Amino-6-(trifluoromethyl)pyridin-4-yl)ethyl)-6-(2-cyclopropoxyethoxy)-7-met hoxy-2-methylquinazolin-4-amine]"
20,5.6,"COCCOc1cc2c(N[C@H](C)c3cc(N)cc(C(F)(F)F)c3)nc(C)nc2cc1OC [Example 42, (R)—N-(1-(3-Amino-5-(trifluoromethyl)phenyl)ethyl)-7-methoxy-6-(2-methoxyethoxy)-2-me thylquinazolin-4-amine]"
21,5.2,"COCC1(COc2cc3c(N[C@H](C)c4cc(N)cc(C(F)(F)F)c4)nc(C)nc3cc2OC)COC1 [Example 43, (R)—N-(1-(3-Amino-5-(trifluoromethyl)phenyl)ethyl)-7-methoxy-6-((3-(methoxymethyl)oxetan-3-yl)methoxy)-2-methylquinazolin-4-amine]"
22,167,"Cc1nc(N[C@H](C)c2cc(N)cc(C(F)(F)F)c2)c2cc(OCCOC3CC3)c(C(F)(F)F)cc2n1 [Example 45, (R)—N-(1-(3-Amino-5-(trifluoromethyl)phenyl)ethyl)-6-(2-cyclopropoxyethoxy)-2-methyl-7-(trifluoromethyl)quinazolin-4-amine]"
23,10,"COc1cc2nc(C)nc(N[C@H](C)c3cc(N)cc(C(F)(F)F)c3)c2cc1OCC1(OC)CC1 [Example 46, (R)—N-(1-(3-Amino-5-(trifluoromethyl)phenyl)ethyl)-7-methoxy-6-((1-methoxycyclopropyl)methoxy)-2-methylquinazolin-4-amine]"
24,7.4,COc1cc2nc(C)nc(N[C@H](C)c3cc(N)cc(C(F)(F)F)c3)c2cc1OC[C@H](C)OC [Example 47]

row,SMILES,IC50 [nM]
1,"COc1cc2nc(C)nc(N[C@H](C)c3cc(N)cc(C(F)(F)F)c3)c2cc1OCCOC1CCC1 [Example 49, (R)—N-(1-(3-Amino-5-(trifluoromethyl)phenyl)ethyl)-6-(2-cyclobutoxyethoxy)-7-methoxy-2-methylquinazolin-4-amine]",4.6
